Measured values from patent US12698324B2, “Cystic lymphangioma treatment drug” (National University Corporation University of Toyama, priority 2020, dated 2026).

Test system: cystic lymphangioma of PDGFRβ knockout mice
Assay: Therapy experiment in cystic lymphangioma of PDGFRβ knockout mice (diameter of LYVE1-positive lymph vessels)
Type: in vivo, mouse
Settings: intraperitoneal three times a week (Erlotinib 50 mg/kg; antibody 5 μg/body), compared with the group of PDGFRβ knockout mice without treatment
Description: To PDGFRβ knockout mice, a neutralizing antibody against amphiregulin (AF989, R&D Systems Inc.) and Erlotinib having EGFR inhibitory activity (Selleck Biotech) were administered for the purpose of treating cystic lymphangioma. The neutralizing antibody against amphiregulin was dissolved in PBS at 25 μg/mL and administered intraperitoneally at 5 μg/body three times a week. Erlotinib was dissolved in DMSO at 50 mg/mL and administered intraperitoneally at 50 mg/kg three times a week. A group of PDGFRβ knockout mice without treatment and a control group of mice in which PDGFRβ was not knocked out were also prepared.
The tissues of PDGFRβ knockout mice were fixed with paraformaldehyde (PFA). Paraffin sections were prepared using fixed samples. The tissue sections were washed with a buffer and antigen-retrieved by heating in a microwave oven for 5 minutes using a commercial retrieval solution. Next, each sample was washed with a buffer solution and the tissues or the cells were subjected to a commercial blocking solution (room temperature, one hour).
Next, each sample was washed with a buffer and subjected to an anti-LYVE1 antibody (Abcam, a primary antibody) at optimum concentration (4° C., overnight). […] The obtained sample was observed and photographed with a fluorescence microscope.
The diameter of each lymph vessel was measured with ImageJ imaging software based on the photographed images. […]

C#Cc1cccc(Nc2ncnc3cc(OCCOC)c(OCCOC)cc23)c1 [Erlotinib]
diameter of dilated lymph vessels: significantly reduced
